The target of one data set is GTP-KRAS-WT:SOS1 (Homo sapiens (Human), UniProt P01116). The experiment in a line: KRAS_WT and SOS1 binding inhibition (KRAS-WT/SOS1 binding kit, 665/615 ratio). To be noted: GTP 10 μM. From the text: To detect the inhibitory capability of small molecule compounds on the binding activity between KRAS_WT and SOS1 using a drug screening system based on the binding of KRAS_WT and SOS1 interaction.
a) BI-2852 was used as a positive control, with its stock solution as the first dilution point, followed by a 3-fold dilution, making a total of 10+0 dilutions. Similarly, the first dilution point of the test compounds was also their respective stock solutions, followed by a 3-fold dilution, making a total of 11+0 dilutions. Using Echo, 0.2 μL of the gradient-diluted compound solutions were transferred into a 384-well plate, with each compound tested in duplicate. The final DMSO concentration was 1%. The plate was centrifuged at 1000 rpm for 1 minute. The final concentrations of the positive controls were 100, 33.33, 11.11, 3.70, 1.23, 0.412, 0.137, 0.046, 0.015, 0.005, and 0 μM. The final concentrations of the test compounds were […], 0.01, and 0 μM.
b) KRAS_WT from the kit was prepared with GTP at a final concentration of 10 μM in the dilution buffer, and 5 μL was transferred into the 384-well reaction plate. The plate was centrifuged at 1000 rpm for 1 minute.
c) Subsequently, 5 μL of the SOS1 mixture was transferred into the 384-well reaction plate. The plate was centrifuged at 1000 rpm for 1 minute and incubated at 25° C. for 15 minutes.
d) 10 μL of the detection mixture was transferred into the 384-well reaction plate. The plate was centrifuged at 1000 rpm for 1 minute and incubated overnight at 4° C.
e) The […] and emission wavelength at 615 nm were read using an Envision multimode plate reader. The 665/615 ratio signal intensity was used to characterize the enzyme activity.
(§1) The IC50 of the compounds was fitted using a nonlinear regression equation with GraphPad Prism 8. The results are presented in Table 2: • Negative control: DMSO • Positive control: 100 μM BI-2852
(§2) The following nonlinear fitting formula was used to obtain the IC50 (half-maximal inhibitory concentration) of the compounds:
(§3) [formula] • X: logarithm of the compound concentration • Y: 665/615 Ratio

A further data set deals with GTP-KRAS-G12D:CRAF (Homo sapiens (Human), UniProt P01116, G12D). The experiment in a line: GTP-KRAS-G12D:CRAF binding inhibition. The method, then:
The IC50 of the compounds was fitted using a nonlinear regression equation with GraphPad Prism 8. The results are presented in Table 2: • Negative control: DMSO • Positive control: 100 μM BI-2852 The following nonlinear fitting formula was used to obtain the IC50 (half-maximal inhibitory concentration) of the compounds: [formula] • X: logarithm of the compound concentration • Y: 665/615 Ratio

Data set [1] deals with Panc-1 (KRASG12D pancreatic cancer cell) CDX model. In kind it is in vivo, Nu/Nu nude mice. On the procedure: Female Nu/Nu nude mice, approximately 8 to 10 weeks old, (Beijing Vital River Laboratory Animal Technology Co., Ltd) were used in these studies. The animals were maintained in individually ventilated cages with a 12-hour light/dark cycle. Food and water were available ad libitum. Panc-1 tumor cells were maintained in vitro at 37° C. in an atmosphere containing 5% CO2 using DMED medium supplemented with 10% fetal bovine serum. Prior to tumor inoculation, cells in the exponential growth phase were harvested and quantified using a cell counter. Panc-1 tumor cells (1×10^7) in 0.2 mL PBS were subcutaneously inoculated into the right flank of each mouse. Randomization was initiated when the average tumor size reached approximately 154.21 mm^3. A total of 9 tumor-bearing mice were enrolled in the study, and these mice were allocated into […] (3 mice per group). Additionally, 3 non-tumor-bearing mice were assigned to the untreated group.
The animals were treated […] via intravenous injection (I.V.) with either a vehicle (10% HP-β-CD) or the vehicle containing the indicated dose of the compound, for approximately 28 days (QD×28 I.V.), or until ethical endpoints were reached (BWL>20%; median tumor volume (MTV)>2000 mm^3; individual TV>3000 mm^3; clinical signs of discomfort). […]
Tumor volume was measured in two dimensions using calipers twice weekly after randomization, and the volume was calculated in mm^3 using the formula: V=(L×W×W)×0.5, where V is the tumor volume, L is the tumor length (the longest tumor dimension), and W is the tumor width (the longest tumor dimension perpendicular to L). […] Tumor growth inhibition (TGI %) was calculated using the formula: TGI %=[1−(Ti/Ci)]×100, where Ti is the median tumor volume in the treatment group on the measurement day, and Ci is the median tumor volume in the control group on the measurement day.

A further data set addresses GTP-KRAS-G12D:SOS1 (Homo sapiens (Human), UniProt P01116, G12D). The experiment in a line: GTP-KRAS-G12D:SOS1 binding inhibition. The method, then:
as §1, §2, §3

Structures can show the parent of a compound that is named as a salt.

GTP-KRAS-WT:SOS1, sequence (P01116-2 other isoform, or with tags, fused parts or gaps): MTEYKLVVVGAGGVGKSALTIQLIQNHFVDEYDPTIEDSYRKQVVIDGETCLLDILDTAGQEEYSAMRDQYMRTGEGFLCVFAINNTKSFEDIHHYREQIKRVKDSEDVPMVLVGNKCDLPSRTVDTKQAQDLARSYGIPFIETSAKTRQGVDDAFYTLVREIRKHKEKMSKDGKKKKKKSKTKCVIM
GTP-KRAS-G12D:CRAF, sequence (P01116-2 other isoform, or with tags, fused parts or gaps G12D): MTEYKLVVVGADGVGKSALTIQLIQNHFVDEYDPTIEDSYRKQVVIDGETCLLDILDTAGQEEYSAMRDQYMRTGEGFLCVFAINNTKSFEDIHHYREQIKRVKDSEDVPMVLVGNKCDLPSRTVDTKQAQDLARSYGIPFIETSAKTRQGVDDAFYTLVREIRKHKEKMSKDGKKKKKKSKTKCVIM
GTP-KRAS-G12D:SOS1, sequence (P01116-2 other isoform, or with tags, fused parts or gaps G12D): as above

As for `CCc1cccc2cc(O)cc(-c3c(F)c4c5c(nc(OC[C@@]67CCCN6C[C@H](F)C7)nc5c3F)N3CC5CCC(N5)C3CO4)c12` (single isomer, unassigned) [Compound 5a, (S or R)-4-((5aS,6S,9R)-1,3-Difluoro-13-(((2R,7aS)-2-fluorotetrahydro-1H-pyrrolizin-7a(5H)-yl)methoxy)-5a,6,7,8,9,10-hexahydro-5H-6,9-epiminoazepino[2′,1′:3,4][1,4]oxazepino[5,6,7-de]quinazolin-2-yl)-5-ethylnaphthalen-2-ol dihydrochloride], the half-maximal inhibitory concentration (IC50) is 11.4 nM at GTP-KRAS-WT:SOS1, 5.81 nM at GTP-KRAS-G12D:CRAF and 14.5 nM at GTP-KRAS-G12D:SOS1. In data set [1] (Panc-1 KRASG12D in Nu/Nu, 10 mg/kg QD IV, Day 28), the “TGI (%) Day 28” value was determined as 96%. Moreover, the “BWL (%) Day 14” value in data set [1] (mouse, in vivo, iv, 10 mg/kg) was −0.77%. Moreover, the “BWL (%) Day 28” value in data set [1] (mouse, in vivo, iv, 10 mg/kg) is reported as −1.58%.

For the origin of these results see patent US20250197424A1, “QUINOLINE COMPOUND AND USE THEREOF” (SHANGHAI PHARMACEUTICALS HOLDING CO., LTD., priority 2022, published 2025).
